Laboratory results: patent publication US6403647B1, “Pulsed administration of compositions for the treatment of blood disorders” (priority 1996, dated 2002)

Key:
Friend leukemia cells = settings: cultured Friend leukemia cells; cited from earlier work
[1] = Platelet counts in baboon with pulse administration; type: in vivo; settings: increased from 240,000
γ globin mRNA = settings: continuous intravenous administration; cited from earlier work
[2] = system: K562 human erythroleukemia cells; settings: cited from earlier work
[3] = Continuous butyrate therapy in a child with beta thalassemia; type: in vivo, human
Source text: Treatment period, the ten month duration of butyrate therapy, is shown between the vertical lines.

[4] = Weekly then pulse butyrate in a patient with β° thalassemia; type: in vivo, human
Experimental: A plateau or even a decline in hematologic response has been commonly observed when butyrate therapy is given continuously. This is illustrated in a patient with β° thalassemia, who responded to weekly butyrate treatment with an increase in fetal globin synthesis and improved globin chain balance from 0.5 to 0.85 non-α to α-globin chain ratios (FIG. 8). A 3-fold increase in γ globin mRNA was detected 24-36 hours after therapy. A 1-1.5 gram/dl rise in total hemoglobin followed the increase in […] synthesis and mRNA, but total Hgb then plateaued and even declined slightly (solid line). A decline in ferritin is also frequently observed (lower panel), even though the patient received single daily supplements.
When therapy was decreased to shorter pulses for 2-3 days on alternate weeks, total hemoglobin rose another 2 grams/dl. Increased iron supplements were required to support the active erythropoiesis, despite the presence of iron overload.
The therapeutic rise in total hemoglobin plateaued or declined on weekly therapy. With a change to pulse therapy, shown by the curved arrow, there was a further rise in total Hgb to 9.6 gm/dl, a level that no longer requires transfusions.
A three fold increase in γ globin mRNA was detected 24 to 36 hours after therapy.
A 1.0 to 1.5 gram per deciliter rise in total hemoglobin followed the increase in γ globin mRNA synthesis for 30 to 50 days, but total Hgb plateaued and even declined slightly (FIG. 8). A decline in ferritin was also frequently observed (FIG. 10) even though the patient received single daily supplements.
Increased iron supplements were required to support active erythropoiesis, despite the iron overload (FIG. 10).

[5] = Globin chain synthesis at varied butyrate infusion rates in patients; type: in vivo, human; settings: infusion at 150 mg per kg per hour; baseline 0.6
Experimental: Infusion rates were varied between 20 to 150 mg per kg per hour in several patients who have large proportions of circulating nucleated erythroblasts. Globin chain synthesis was assayed at different time points before and following drug infusions.

[6] = Apoptosis (fragmented DNA stain) of circulating erythroblasts, Hb-E beta thalassemia patient; type: in vivo, human
Source text: Peripheral blood from a patient with Hb-E beta thalassemia has 1200 NRBCs per 100 white blood cells which allows for rapid monitoring for apoptosis. […] A plateau or even a decline in hematologic response has been observed when butyrate therapy is given continuously.

fetal globin [7] = experiment: Fetal globin production in erythroid progenitor colonies (Bfu-e), sickle cell anemia patient; type: cell-based, human; settings: controls 48% of non-α globin
Bfu-e = experiment: Erythroid colony (Bfu-e) proliferation with maximal growth factors, normal subject; type: cell-based, human; settings: 0.2-0.5 mM where given
Source text: Erythroid cells were obtained, as described in Example 1, from a normal subject and cultured on semi-solid medium in the presence of a maximal amount of erythroid growth factors including IL-6, GM-CSF, SCF and EPO. Erythroid proliferation in the presence of these factors is expected to be maximal and, therefore, any increases observed would be significant.

human fetal liver cells = experiment: Erythroid progenitor colony proliferation, fetal liver cells; type: cell-based; settings: 0.2 mM, maximal growth factors, p<0.025
Experimental: In a third experiment, human fetal liver cells were also tested. As fetal cells are known not to respond to the presence of the growth factors, any increases observed are highly significant. Erythroid progenitor cultures were established from fetal liver and plated with maximal amounts of growth factors. To these plates were added; lane 1, 2-(4′-methoxyphenoxy) propionic acid; lane 2, phenoxyacetic acid; and lane 3, α-methylhydrocinnamic acid; all at a concentration of 0.2 mM.

fetal globin [8] = experiment: Proportion of fetal globin-expressing cells in culture, fluorescent antibodies, sickle cell patient; type: cell-based, human; settings: 14 days, controls 40.7%
Experimental: In a fourth experiment, erythroid cells were obtained from a sickle cell patient. These cells were established in culture both with and without test a variety of test compounds. Cultures were incubated for 14 days in methylcellulose media with maximal concentrations of all hematopoietic growth factors (GM-CSF, SCF, EPO). Colonies were analyzed using fluorescent monoclonal antibodies against fetal globin to determine the proportion of erythroid cells that expressed fetal globin.

[9] = system: system A transport of amino acids; experiment: Uptake of 3H-methyl-aminoisobutyric acid (MeAIB) into erythroblasts; type: cell-based; settings: for amino acid (MeAIB) uptake / transport: 2.0 mM, relative to untreated fetal liver erythroid cells
Experimental: Erythroblasts were tested for alterations in uptake of radio-labelled amino acid (^3H-methyl-aminoisobutyric acid; MeAIB) in the presence of AB (arginine butyrate), AMHCA (α-methylhydrocinnamic acid), PAA (phenoxyacetic acid), and IBT (isobutyramide), each at 2.0 mM.

[10] = Total hemoglobin in phlebotomized anemic baboons, continuous versus pulse therapy; type: in vivo, baboon
Experimental: Therapy was administered to anemic baboons who were being phlebotomized 5-10 ml/kg of blood per day on a continuous basis. EPO was administered daily at 300 U/kg/dose. Arginine butyrate was administered daily at 700 mg/kg/day for 5 days and phenoxyacetic acid at 500 mg/kg/day daily over 8 hours and at 1000 mg/kg/day for 24 hours/day daily for five days each. […] With continuous arginine butyrate treatment, hemoglobin remained essentially stable at 6.7 to 6.9 gram/dl. With continuous treatment with phenoxyacetic acid, hemoglobin levels remained stable at 7.0 gram/dl to 6.9 gram/dl during 8 hour therapy and declined from 6.8 to 4.5 when the drug was given for 24 hours per day for 5 days.

[11] = DNA fragmentation assays (cell viability); type: cell-based; settings: pulsed administration
Source text: Normal cell viability, the viability of an untransformed or uninfected cell, can be determined from analyzing the effects of the composition on one or more biological processes of the cell. Detrimental interference with one or more of these cellular processes becomes significant when the process becomes abnormal. Examples of quantitatable and qualifiable biological processes include the processes of cell division, protein synthesis, nucleic acid (DNA or RNA) synthesis, nucleic acid (principally DNA) fragmentation and apoptosis. Others processes include specific enzyme activities, the activities of the cellular transportation systems such as the transportation of amino acids by system A (neutral), system B (acidic) or system C (basic), and the expression of a cell surface protein. […] Abnormal cell division, for example, can be mitosis which occurs too rapidly, as in a malignancy, or unstably, resulting in programmed cell death or apoptosis, detected by increased DNA degradation. The determination of abnormal cell viability can be made on comparison with untreated control cells. Compositions preferably increase normal cell viability. Increased cell viability can be determined by those of ordinary skill in the art using, for example, DNA fragmentation analysis. […] Determinations of increased or decreased viability can also be concluded from an analysis of the results of multiple different assays. Where multiple tests provide conflicting results, accurate conclusions can still be drawn by those of ordinary skill based upon the cell type, the correctness or correlation of the tests with actual conditions and the type of composition.
Patients with blood disorders are typically quite infirm with, for example, iron damaged organs and systems. Most treatments further tax the patient's already frail health in an effort to combat the disorder.

## CC(=O)O [acetate]
Friend leukemia cells
  hemoglobin synthesis: induced hemoglobin synthesis

## O=C(O)CCc1ccccc1 [dihydrocinnamic acid]
[1]
  platelet counts after treatment: 767,000

## CC(C)C(=O)O [isobutyrate]
Friend leukemia cells
  hemoglobin synthesis: induced hemoglobin synthesis

## Nc1ncn([C@@H]2O[C@H](CO)[C@@H](O)[C@H]2O)c(=O)n1 [AZA, 5-azacytidine]
γ globin mRNA
  increase in γ globin mRNA of bone marrow cells: five- to seven-fold

## CCC(=O)O [propionate]
Friend leukemia cells
  hemoglobin synthesis: induced hemoglobin synthesis
[2]
  ability to increase fetal globin expression: most effective

## CCCC(=O)O [butyrate]
[3]; after 4 months of continuous weekly treatment
  total hemoglobin: 7.5-8.4 gm/dl
[3]; continuous therapy, baseline 5.6 grams/dl
  total hemoglobin, peak: 9.9 gm/dl
[3]; continuous therapy, for 2 months after peak
  total hemoglobin, plateau: 8.0-8.8 gm/dl
[4]; after change to pulse therapy
  total Hgb reached: 9.6 gm/dl
[4]; weekly butyrate, improved from 0.5
  non-α to α-globin chain ratios: 0.85
[4]; weekly butyrate, then plateaued
  rise in total hemoglobin: 1-1.5 gram/dl
[5]
  non-α globin to α globin ratio: 0.77
[6]; after high-dose
  apoptosis, red stain of fragmented DNA: red staining of most cells
[6]; after low-dose pulse therapy
  apoptosis, red stain of fragmented DNA: no red-staining erythroblasts are observed

## CC(Cc1ccccc1)C(=O)O (stereo not drawn) [α-methylhydrocinnamic acid]
Fetal globin [7]
  increase in fetal globin over controls: 18%
Bfu-e
  Bfu-e growth: further increase Bfu-e growth
Human fetal liver cells
  proliferation of colonies: increased proliferation of colonies
Fetal globin [8]; concentration not given
  Increase in γ-Globin Expressing Cells: 64.4%
[9]
  system A transport of amino acids: do not significantly alter system A transport of amino acids
  amino acid (MeAIB) uptake / transport: did not inhibit amino acid transport

## O=C(O)COc1ccccc1 [phenoxyacetic acid]
Fetal globin [7]
  increase in fetal globin over controls: 34%
Bfu-e
  Bfu-e growth: further increase Bfu-e growth
Human fetal liver cells
  proliferation of colonies: increased proliferation of colonies
Fetal globin [8]; 0.2 mM
  Increase in γ-Globin Expressing Cells: 54.6%
[10]; continuous, 500 mg/kg/day daily over 8 hours, from 7.0
  total hemoglobin after treatment: 6.9 gram/dl
[10]; continuous, 1000 mg/kg/day, 24 hours per day for 5 days, declined from 6.8
  total hemoglobin after treatment: 4.5
[10]; pulse, 2 oral doses per week, 500 mg/kg on days 1 and 4, in one week, from 6.9
  total hemoglobin after treatment: 7.6 gram/dl
[9]
  system A transport of amino acids: do not significantly alter system A transport of amino acids
  amino acid (MeAIB) uptake / transport: did not inhibit amino acid transport
[11]
  DNA fragmentation in fragmentation assays: reduce DNA fragmentation
